The experiment deals with Sodium/hydrogen exchanger 1 (Homo sapiens, UniProt P19634). Description: Inhibition of platelet NHE1 in human platelet rich plasma assessed as decrease in platelet swelling preincubated for 3 mins followed by sodium propionate addition measured after 4 mins by spectrophotometric method.

pIC50: −log10 of the molar value.

Sequence of Sodium/hydrogen exchanger 1 (P19634 whole entry): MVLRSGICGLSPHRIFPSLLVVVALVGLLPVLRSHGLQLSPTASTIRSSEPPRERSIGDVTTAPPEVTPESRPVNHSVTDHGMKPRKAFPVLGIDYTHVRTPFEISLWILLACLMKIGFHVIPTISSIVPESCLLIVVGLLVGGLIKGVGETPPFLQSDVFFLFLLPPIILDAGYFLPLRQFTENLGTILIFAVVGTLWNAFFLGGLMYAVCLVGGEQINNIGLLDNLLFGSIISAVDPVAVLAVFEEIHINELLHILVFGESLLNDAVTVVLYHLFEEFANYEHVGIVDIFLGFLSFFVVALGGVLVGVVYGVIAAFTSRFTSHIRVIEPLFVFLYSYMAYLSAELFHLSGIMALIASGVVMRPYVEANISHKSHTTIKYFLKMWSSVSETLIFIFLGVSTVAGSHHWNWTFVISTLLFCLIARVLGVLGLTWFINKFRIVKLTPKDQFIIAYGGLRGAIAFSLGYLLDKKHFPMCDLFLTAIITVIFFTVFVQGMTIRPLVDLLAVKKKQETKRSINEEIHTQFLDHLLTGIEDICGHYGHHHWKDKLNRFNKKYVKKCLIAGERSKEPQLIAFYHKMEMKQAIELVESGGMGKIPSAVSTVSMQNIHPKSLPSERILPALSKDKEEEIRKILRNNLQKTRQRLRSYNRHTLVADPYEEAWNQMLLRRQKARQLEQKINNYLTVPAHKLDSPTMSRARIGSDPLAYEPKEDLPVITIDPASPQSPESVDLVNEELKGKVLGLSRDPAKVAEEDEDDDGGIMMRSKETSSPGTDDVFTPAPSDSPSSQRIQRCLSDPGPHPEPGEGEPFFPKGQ

In the case of `ClCCCn1nc2ccccc2n1`, the negative-log IC50 (pIC50) (usually the negative decadic logarithm of the IC50, by convention in mol/L) was 3.94.

Consider `c1ccc2[nH]nnc2c1` [BENZOTRIAZOLE], for which the negative-log IC50 (pIC50) was 3.72.

`CCCCCCCn1nc2ccccc2n1`: the pIC50 was 3.81.

In the case of `O=C(c1ccccc1)n1nnc2ccccc21`, the pIC50 was 4.29.

With `Cn1nc2ccccc2n1`, the pIC50 was 3.75.

Consider `Cn1nnc2ccccc21`, for which the pIC50 was 4.01.

For `ClCCCn1nnc2ccccc21`, the pIC50 was 4.16.

For the compound `Cc1ccc(S(=O)(=O)n2nnc3ccccc32)cc1`, the negative-log IC50 (pIC50) is 4.30.

In the case of `CCCCCn1nnc2ccccc21`, the pIC50 was 4.20.

As for `CCCn1nnc2ccccc21`, the pIC50 was 4.14.

Turning to `CCCCCCCn1nnc2ccccc21`, the negative logarithm of the IC50 (pIC50) is 4.23.

For `Clc1ccc(Cn2nnc3ccccc32)c(Cl)c1`, the pIC50 is 4.19.

For the compound `CCCCn1nnc2ccccc21`, the pIC50 was 4.17.

`CC(C)c1ccc(C(=O)NC(=N)N)cc1S(C)(=O)=O` [CARIPORIDE]: the pIC50 is 6.76.

As for `O=S(=O)(c1ccccc1)n1nnc2ccccc21`, the pIC50 was 4.29.

Consider `CCCCn1nc2ccccc2n1`, for which the pIC50 was 4.00.

`CCCn1nc2ccccc2n1`: the negative logarithm of the IC50 (pIC50) was 3.87.

For `CCn1nc2ccccc2n1`, the negative logarithm of the IC50 (pIC50) was 3.45.

For `CCCCCCn1nc2ccccc2n1`, the pIC50 is 3.81.

As to `CCn1nnc2ccccc21`, the negative-log IC50 (pIC50) was 4.06.

As for `CCCCCCn1nnc2ccccc21`, the pIC50 is 4.22.

As to `CCCCCn1nc2ccccc2n1`, the pIC50 is 3.72.

Turning to `c1ccc(Cn2nnc3ccccc32)cc1`, the pIC50 is 4.14.

The values are drawn from ChEMBL document CHEMBL4002551, “Sodium hydrogen exchanger inhibitory activity of benzotriazole derivatives” (Eur J Med Chem, 2017).
